System: Bacillus thuringiensis spores
Assay: Killing of spores (Example 2): microtiter serial 10-fold dilution, growth read with MTT
Assay type: cell-based
Settings: wells 7-8: KI only, no laccase, no methylsyringate, 1 hour 24 degrees Celsius pH 6.5
Method: Spore suspension was pipetted into the wells in row A of a microtiter plate. The reaction was initiated by the addition of laccase solution.
The microtiter plate was incubated at room temperature (24 degrees Celsius) for 1 hour.
In the tables growth is indicated with a “+” symbol.

Measured: growth

[I-].[K+] [KI, Potassium iodide]
+: 10-fold dilution step 4 | listed as B, 10-fold dilution step 1 | listed as C, 10-fold dilution step 2 | listed as D, 10-fold dilution step 3 | listed as F, 10-fold dilution step 5 | listed as G, 10-fold dilution step 6

Source: patent publication US20050153856A1, “Methods and compositions for killing spores” (priority 2002, published 2005)
